# According to ChEMBL document CHEMBL6103579, “Antiproliferative activity of selenium-enriched coumarin derivatives on the SK-N-SH neuroblastoma cell line: Mechanistic insights” (Eur J Med Chem, 2025):
# Active and inactive are the calls of the source. No cut-off for these calls is given here.
# What was measured:
# [1] = Downregulation of Beta-catenin expression in human SK-N-SH cells at 6 uM measured after 48 hrs by Western blot analysis relative to control; type: functional
# [2] = Toxicity in female ICR mouse assessed as change in organ coefficient of spleen at 10 mg/kg, ip […] (reference value: 0.006+/-0.002); type: organism-based; conditions: in vivo
# SK-N-SH [3] = assay: Downregulation of caspase-9 expression in human SK-N-SH cells at 3 to 9 uM measured after 48 hrs by Western blot analysis; type: functional, cell-based; conditions: dose 3-9 µM
# SK-N-SH [4] = assay: Antiproliferative activity against human SK-N-SH cells assessed as reduction in cell proliferation incubated for 60 hrs by CCK-8 method; type: functional, cell-based; conditions: dose 0.5-2 µM
# SK-N-SH [5] = assay: Upregulation of cytochrome C level in human SK-N-SH cells at 6 uM measured after 48 hrs by immunofluorescence staining based microscopic analysis; type: functional, cell-based
# N2a [6] = assay: Antitumor activity against mouse N2a cells implanted in female ICR mouse model assessed as reduction in tumor weight at 20 mg/kg, ip measured upto 8 days (reference value: 0.9 +/-0.26 g); type: functional; conditions: time <= 8 day
# [7] = Toxicity in female ICR mouse assessed as appearance of intact glomeruli in kidney at 10 to 20 mg/kg, ip H and E staining based analysis; type: organism-based; conditions: in vivo, dose 10-20 mg/kg
# [8] = Toxicity in female ICR mouse assessed as change in organ coefficient of lung at 20 mg/kg, ip […] (reference value: 0.007+/-0.001); type: organism-based; conditions: in vivo
# SK-N-SH [9] = assay: Inhibition of cell migration in human SK-N-SH cells at 2 uM measured after 48 hrs by crystal violet staining based microscopic analysis relative to control; type: functional
# SK-N-SH [10] = assay: Inhibition of cell invasion in human SK-N-SH cells at 0.5 to 2 uM measured after 48 hrs by crystal violet staining based microscopic analysis; type: functional; conditions: dose 0.5-2 µM
# SK-N-SH [11] = assay: Inhibition of colony formation in human SK-N-SH cells assessed as reduction in colony size at 0.5 to 2 uM preincubated for 24 hrs followed by incubation under compound free medium for 8 days by crystal violet staining based analysis; type: functional, cell-based; conditions: dose 0.5-2 µM
# SK-N-SH [12] = assay: Antiproliferative activity against human SK-N-SH cells assessed as reduction in cell proliferation at 2 uM incubated for 60 hrs by CCK-8 method relative to control; type: functional; design: scale not given: the % may be the effect or the level left
# [13] = Toxicity in female ICR mouse assessed as abnormal movement at 10 to 20 mg/kg, ip; type: organism-based; conditions: in vivo, dose 10-20 mg/kg
# [14] = Toxicity in female ICR mouse assessed as change in organ coefficient of kidney at 20 mg/kg, ip […] (reference value: 0.007); type: organism-based; conditions: in vivo
# SK-N-SH [15] = assay: Induction of apoptosis in human SK-N-SH cells assessed as increase in apoptotic cells at 3 to 9 uM measured after 48 hrs by FITC and PI staining based flow cytometry analysis relative to control; type: functional; conditions: dose 3-9 µM
# [16] = Toxicity in female ICR mouse assessed as change in organ coefficient of lung at 10 mg/kg, ip […] (reference value: 0.007+/-0.001); type: organism-based; conditions: in vivo
# [17] = Toxicity in female ICR mouse assessed as histomorphological changes in heart at 10 to 20 mg/kg, ip H and E staining based analysis; type: organism-based; conditions: in vivo, dose 10-20 mg/kg
# [18] = Antiproliferative activity against human Embryonic lung cell assessed as inhibition of cell growth incubated for 60 hrs by CCK-8 method; type: toxicity, cell-based
# SK-N-SH [19] = assay: Induction of mitochondrial dysfunction in human SK-N-SH cells assessed as appearance of blurred mitochondria at 6 uM measured after 48 hrs by fluorescence microscopic analysis; type: functional, cell-based
# [20] = Toxicity in female ICR mouse assessed as effect on body weight loss at 10 to 20 mg/kg, ip; type: organism-based; conditions: in vivo, dose 10-20 mg/kg
# [21] = Downregulation of Beta-catenin expression in human SK-N-SH cells at 9 uM measured after 48 hrs by Western blot analysis relative to control; type: functional
# SK-N-SH [22] = assay: Inhibition of cell invasion in human SK-N-SH cells at 2 uM measured after 48 hrs by crystal violet staining based microscopic analysis relative to control; type: functional
# SK-N-SH [23] = assay: Induction of mitochondrial dysfunction in human SK-N-SH cells assessed as increase in intracellular green fluorescence intensity at 6 uM; type: functional, cell-based; conditions: time 2-48 hrs
# [24] = Toxicity in female ICR mouse assessed as change in organ coefficient of heart at 20 mg/kg, ip […] (reference value: 0.006+/-0.002); type: organism-based; conditions: in vivo
# [25] = Toxicity in female ICR mouse assessed as change in organ coefficient of liver at 20 mg/kg, ip […] (reference value: 0.058+/-0.010); type: organism-based; conditions: in vivo
# N2a [26] = assay: Antitumor activity against mouse N2a cells implanted in female ICR mouse model assessed as tumor inhibition rate at 20 mg/kg, ip measured upto 8 days relative to control; type: functional; design: scale not given: the % may be the effect or the level left; conditions: time <= 8 day
# [27] = Downregulation of N-cadherin expression in human SK-N-SH cells at 6 uM measured after 48 hrs by Western blot analysis relative to control; type: functional
# SK-N-SH [28] = assay: Antiproliferative activity against human SK-N-SH cells assessed as reduction in cell proliferation at 0.5 uM incubated for 60 hrs by CCK-8 method relative to control; type: functional; design: scale not given: the % may be the effect or the level left
# SK-N-SH [29] = assay: Antiproliferative activity against human SK-N-SH cells assessed as reduction in cell proliferation at 1 uM incubated for 60 hrs by CCK-8 method relative to control; type: functional; design: scale not given: the % may be the effect or the level left
# [30] = Toxicity in female ICR mouse assessed as change in organ coefficient of heart at 10 mg/kg, ip […] (reference value: 0.006+/-0.002); type: organism-based; conditions: in vivo
# [31] = Drug localization in mitochondria of living human SK-N-SH cells assessed as colocalization at 6 uM incubated for 48 hrs by DAPI staining based fluorescence microscopic analysis; type: ADME
smiles,measurement,setting,value
N#C[Se]CCCOc1ccc2cc(C(=O)N3N=C(c4ccc(F)cc4)CC3c3ccc(F)cc3)c(=O)oc2c1 (stereo unspecified),Activity,[1],70.8%
same,Activity,[2],0.006
same,Activity,SK-N-SH [3],Active
same,Activity,SK-N-SH [4],Dose-dependent-effect
same,Activity,SK-N-SH [5],Active
same,Activity,N2a [6],0.06 g
same,Activity,[7],Non-toxic
same,Activity,[8],0.007
same,inhibition at 2 µM,SK-N-SH [9],83.2%
same,inhibition,SK-N-SH [10],Active
same,inhibition,SK-N-SH [11],Active
same,Activity,SK-N-SH [12],81.4%
same,Activity,[13],Non-toxic
same,Activity,[14],0.008
same,Activity,SK-N-SH [15],47.4%
same,Activity,[16],0.007
same,Activity,[17],Non-toxic
same,Activity,[18],Non-toxic
same,Activity,SK-N-SH [19],Active
same,Activity,[20],Non-toxic
same,Activity,[21],42.2%
same,inhibition at 2 µM,SK-N-SH [22],78.4%
same,Activity,SK-N-SH [23],Time-dependent-effect
same,Activity,[24],0.005
same,Activity,[25],0.059
same,Activity,N2a [26],93.3%
same,Activity,[27],63.1%
same,Activity,SK-N-SH [28],24.1%
same,Activity,SK-N-SH [29],63.8%
same,Activity,[30],0.005
same,Drug uptake,[31],Active
